Assay results taken from patent publication US20200345776A1, “CELL” (AUTOLUS LIMITED, priority 2017, published 2020).

Key:
Adenosine A2AR receptor = Adenosine A2AR receptor (Homo sapiens, UniProt P29274); conditions: cited from earlier work
SKOV3 cells [1] = conditions: positive control of cell killing/inhibition, 10 ug/ml; cited from earlier work
cancer cells = conditions: cited from earlier work
SKOV3 cells [2] = experiment: Co-culture of violacein-producing SupT1 cells with SKOV3 cells, live cell imaging; assay type: cell-based, human; conditions: FIG. 12, co-culture
Protocol: The following day the indicated supT1 cells were added to the SKOV3 cells at density of 20,000 cells per well in a total volume of 200 ul cell culture medium. Cells were continuously monitored in a Incycute live cell imager and the number of viable SKOV3 cells enumerated every hour by counting the presence of red fluorescent nuclei.

MOLT-4 leukaemia = conditions: cited from earlier work
[3] = system: NCI-H460 non-small-cell lung cancer; conditions: cited from earlier work
[4] = system: KM12 colon-cancer cell lines; conditions: cited from earlier work

Adenosine A2AR receptor, sequence (P29274 whole entry): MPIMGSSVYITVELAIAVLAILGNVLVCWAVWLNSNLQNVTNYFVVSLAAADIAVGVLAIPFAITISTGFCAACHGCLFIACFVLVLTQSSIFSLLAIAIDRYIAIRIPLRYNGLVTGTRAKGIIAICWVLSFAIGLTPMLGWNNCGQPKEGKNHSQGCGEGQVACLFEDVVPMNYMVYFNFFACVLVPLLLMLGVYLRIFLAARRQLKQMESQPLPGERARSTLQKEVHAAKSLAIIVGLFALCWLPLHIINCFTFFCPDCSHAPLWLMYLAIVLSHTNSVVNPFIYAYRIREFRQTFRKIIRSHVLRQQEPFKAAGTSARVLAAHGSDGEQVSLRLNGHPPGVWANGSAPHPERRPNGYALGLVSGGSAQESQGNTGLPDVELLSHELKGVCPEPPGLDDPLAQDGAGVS

Cn1c(=O)c2c(ncn2C)n(C)c1=O [Caffeine]
Action on Adenosine A2AR receptor expressed on T cells (Adenosine A2AR receptor): known antagonist

COc1cc([C@@H]2c3cc4c(cc3[C@@H](O[C@@H]3O[C@@H]5CO[C@@H](C)O[C@H]5[C@H](O)[C@H]3O)[C@H]3COC(=O)[C@H]23)OCO4)cc(OC)c1O [Etoposide]
Apoptosis of SKOV3 cells (SKOV3 cells [1]): induces the apoptosis

CC(C)=CCC/C(C)=C/CO [Geraniol]
Effect against cancer cells in vitro (cancer cells): anti-proliferative/pro-apoptotic effect

O=C1NC(c2c[nH]c3ccc(O)cc23)=C/C1=C1\C(=O)Nc2ccccc21 [Violacein]
Toxicity of violacein produced by SupT1 cells to SKOV3 tumour cells (SKOV3 cells [2]): toxic
Activity against MOLT-4 leukaemia (MOLT-4 leukaemia): has activity
Activity against NCI-H460 non-small-cell lung cancer [3]: has activity
Activity against KM12 colon-cancer cell lines [4]: has activity
